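Protocol summary: plate cells (96-well), add compound at 5 concentrations, incubate 48 h, interpolate endpoints linearly. TGI: total growth inhibition.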
Tests used:
Assay in all cases: NCI tumour cell line growth inhibition, 48 h
CCRF-CEM leukemia = tested on: CCRF-CEM leukemia
U251 CNS = tested on: U251 CNS
PC-3 prostate = tested on: PC-3 prostate
NCI/ADR-RES ovarian = tested on: NCI/ADR-RES ovarian
HL-60(TB) leukemia = tested on: HL-60(TB) leukemia
EKVX NSCLC = tested on: EKVX NSCLC
NCI-H23 lung = tested on: NCI-H23 lung
SF-295 CNS = tested on: SF-295 CNS
NCI-H460 lung = tested on: NCI-H460 lung
M14 melanoma = tested on: M14 melanoma
SK-MEL-28 melanoma = tested on: SK-MEL-28 melanoma
SNB-19 CNS = tested on: SNB-19 CNS
SK-MEL-5 melanoma = tested on: SK-MEL-5 melanoma
A498 renal = tested on: A498 renal
MDA-MB-435 = tested on: MDA-MB-435
DU-145 prostate = tested on: DU-145 prostate
UACC-62 melanoma = tested on: UACC-62 melanoma
MALME-3M melanoma = tested on: MALME-3M melanoma
IGROV1 ovarian = tested on: IGROV1 ovarian
SK-MEL-2 melanoma = tested on: SK-MEL-2 melanoma
NCI-H226 lung = tested on: NCI-H226 lung
786-0 renal = tested on: 786-0 renal
HT29 colon = tested on: HT29 colon
ACHN renal = tested on: ACHN renal
TK-10 renal = tested on: TK-10 renal
SR leukemia = tested on: SR leukemia
SF-539 CNS = tested on: SF-539 CNS
HCT-116 colon = tested on: HCT-116 colon
OVCAR-5 ovarian = tested on: OVCAR-5 ovarian
UACC-257 melanoma = tested on: UACC-257 melanoma
KM12 colon = tested on: KM12 colon
RPMI-8226 leukemia = tested on: RPMI-8226 leukemia
HCC-2998 colon = tested on: HCC-2998 colon
BT-549 breast = tested on: BT-549 breast
SN12C renal = tested on: SN12C renal
NCI-H522 lung = tested on: NCI-H522 lung
OVCAR-8 ovarian = tested on: OVCAR-8 ovarian
T-47D breast = tested on: T-47D breast
CAKI-1 renal = tested on: CAKI-1 renal
A549 NSCLC = tested on: A549 NSCLC
OVCAR-3 ovarian = tested on: OVCAR-3 ovarian
SF-268 CNS = tested on: SF-268 CNS
MCF7 breast = tested on: MCF7 breast
LOX IMVI melanoma = tested on: LOX IMVI melanoma
COLO 205 colon = tested on: COLO 205 colon
HS 578T breast = tested on: HS 578T breast
SK-OV-3 ovarian = tested on: SK-OV-3 ovarian
MDA-MB-231 breast = tested on: MDA-MB-231 breast
K-562 leukemia = tested on: K-562 leukemia
HOP-62 NSCLC = tested on: HOP-62 NSCLC
HCT-15 colon = tested on: HCT-15 colon
SW-620 colon = tested on: SW-620 colon
RXF 393 renal = tested on: RXF 393 renal
UO-31 renal = tested on: UO-31 renal
SNB-75 CNS = tested on: SNB-75 CNS
OVCAR-4 ovarian = tested on: OVCAR-4 ovarian
HOP-92 NSCLC = tested on: HOP-92 NSCLC
MOLT-4 leukemia = tested on: MOLT-4 leukemia

Measured: TGI

COc1ccc([N+](=O)[O-])cc1[I+]c1cc([N+](=O)[O-])ccc1OC
17.1 µM: MALME-3M melanoma
26.7 µM: SR leukemia
94.8 µM: UACC-62 melanoma
82.3 µM: SK-OV-3 ovarian
94.7 µM: KM12 colon
80.3 µM: NCI-H460 lung
73.1 µM: LOX IMVI melanoma
24.9 µM: SK-MEL-5 melanoma
49.3 µM: MDA-MB-435
34.2 µM: U251 CNS
97.6 µM: HL-60(TB) leukemia
21.8 µM: SK-MEL-28 melanoma
> 100 µM: CCRF-CEM leukemia | PC-3 prostate | NCI/ADR-RES ovarian | EKVX NSCLC | NCI-H23 lung | SF-295 CNS | M14 melanoma | SNB-19 CNS | A498 renal | DU-145 prostate | IGROV1 ovarian | SK-MEL-2 melanoma | NCI-H226 lung | 786-0 renal | HT29 colon | ACHN renal | TK-10 renal | SF-539 CNS | HCT-116 colon | OVCAR-5 ovarian | UACC-257 melanoma | RPMI-8226 leukemia | HCC-2998 colon | BT-549 breast | SN12C renal | NCI-H522 lung | OVCAR-8 ovarian | T-47D breast | CAKI-1 renal | A549 NSCLC | OVCAR-3 ovarian | SF-268 CNS | MCF7 breast | COLO 205 colon | HS 578T breast | MDA-MB-231 breast | K-562 leukemia | HOP-62 NSCLC | HCT-15 colon | SW-620 colon | RXF 393 renal | UO-31 renal

O=C1c2cc([N+](=O)[O-])cnc2S(=O)(=O)N1c1ccc(Oc2ccccc2)cc1
> 100 µM: CCRF-CEM leukemia | U251 CNS | PC-3 prostate | SNB-75 CNS | NCI/ADR-RES ovarian | HL-60(TB) leukemia | EKVX NSCLC | NCI-H23 lung | SF-295 CNS | NCI-H460 lung | M14 melanoma | SK-MEL-28 melanoma | SNB-19 CNS | MDA-MB-435 | DU-145 prostate | UACC-62 melanoma | MALME-3M melanoma | IGROV1 ovarian | SK-MEL-2 melanoma | NCI-H226 lung | 786-0 renal | ACHN renal | TK-10 renal | SR leukemia | HCT-116 colon | OVCAR-5 ovarian | OVCAR-4 ovarian | KM12 colon | RPMI-8226 leukemia | HCC-2998 colon | BT-549 breast | SN12C renal | NCI-H522 lung | OVCAR-8 ovarian | T-47D breast | A549 NSCLC | OVCAR-3 ovarian | MCF7 breast | LOX IMVI melanoma | HOP-92 NSCLC | COLO 205 colon | HS 578T breast | SK-OV-3 ovarian | MDA-MB-231 breast | K-562 leukemia | HOP-62 NSCLC | HCT-15 colon | MOLT-4 leukemia | SW-620 colon | RXF 393 renal | UO-31 renal
